Test results published in US20240270821A1, “GIP/GLP1/GCG TRI-RECEPTOR AGONISTS AND USES THEREOF” (priority 2023, published 2024).
Read-outs that look alike come from different tables or passages of the source.

How the values were obtained:
Type in all cases: cell-based
hGIPR [1] = biological target: T1, hGIPR (Homo sapiens, UniProt P48546); experiment: Functional cAMP activity in the presence of 1% HSA; details: read-out: cAMP Rel EC50, hGIPR
T1 sequence (P48546 22-466): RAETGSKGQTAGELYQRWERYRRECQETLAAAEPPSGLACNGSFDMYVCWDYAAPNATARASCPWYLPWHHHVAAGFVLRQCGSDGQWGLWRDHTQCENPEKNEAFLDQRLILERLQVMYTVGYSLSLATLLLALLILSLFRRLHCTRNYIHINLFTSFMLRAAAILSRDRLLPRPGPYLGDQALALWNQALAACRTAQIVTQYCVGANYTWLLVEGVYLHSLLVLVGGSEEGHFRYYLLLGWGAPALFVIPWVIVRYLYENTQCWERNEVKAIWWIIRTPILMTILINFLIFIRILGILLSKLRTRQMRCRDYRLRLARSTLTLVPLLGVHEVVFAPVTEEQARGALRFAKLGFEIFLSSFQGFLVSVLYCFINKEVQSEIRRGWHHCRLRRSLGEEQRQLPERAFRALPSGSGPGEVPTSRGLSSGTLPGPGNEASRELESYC

hGLP-1R [2] = biological target: T2, hGLP-1R (Homo sapiens, UniProt P43220); experiment: Functional cAMP activity in the presence of 1% HSA; details: read-out: cAMP Rel EC50, hGLP-1R
T2 sequence (P43220 24-463): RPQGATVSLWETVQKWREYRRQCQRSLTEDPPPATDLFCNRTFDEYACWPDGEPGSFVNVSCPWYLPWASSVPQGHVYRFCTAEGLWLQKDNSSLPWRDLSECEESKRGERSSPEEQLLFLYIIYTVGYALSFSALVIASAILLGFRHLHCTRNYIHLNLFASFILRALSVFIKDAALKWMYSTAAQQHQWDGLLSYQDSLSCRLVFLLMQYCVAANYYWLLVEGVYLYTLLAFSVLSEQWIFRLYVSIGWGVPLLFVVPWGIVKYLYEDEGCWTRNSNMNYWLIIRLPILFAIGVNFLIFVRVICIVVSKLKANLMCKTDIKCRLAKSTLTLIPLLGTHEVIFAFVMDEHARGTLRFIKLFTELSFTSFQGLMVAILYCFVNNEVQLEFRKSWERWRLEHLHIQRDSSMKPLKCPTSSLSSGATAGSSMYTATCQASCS

human GcgR = human GcgR (Homo sapiens, UniProt P47871); experiment: Functional cAMP activity in the presence of 1% HSA; details: read-out: cAMP Rel EC50, hGcgR
Chain of human GcgR (P47871 26-477): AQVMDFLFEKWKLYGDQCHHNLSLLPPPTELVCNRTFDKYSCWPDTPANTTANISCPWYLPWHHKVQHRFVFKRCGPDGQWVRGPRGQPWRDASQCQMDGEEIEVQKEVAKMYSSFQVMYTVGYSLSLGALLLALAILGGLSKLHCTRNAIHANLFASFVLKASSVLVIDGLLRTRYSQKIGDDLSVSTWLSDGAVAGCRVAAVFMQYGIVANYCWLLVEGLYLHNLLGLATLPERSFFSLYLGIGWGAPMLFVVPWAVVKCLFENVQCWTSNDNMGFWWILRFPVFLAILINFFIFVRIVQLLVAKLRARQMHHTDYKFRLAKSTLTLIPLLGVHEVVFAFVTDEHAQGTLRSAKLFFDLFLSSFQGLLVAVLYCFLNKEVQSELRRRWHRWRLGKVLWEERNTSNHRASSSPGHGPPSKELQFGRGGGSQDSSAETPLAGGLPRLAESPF

hGIPR [3] = biological target: T1, hGIPR; experiment: Functional cAMP activation in the presence of 0.1% casein (no HSA); details: read-out: Relative cAMP EC50, hGIPR;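 on Relative cAMP EC50, hGIPR: intracellular cAMP rise after 30 min at 37 °C read by HTRF against a standard curve, scaled between buffer alone (0%) and top control ligand concentration (100%), four-parameter fit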;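 on Relative cAMP EC50, hGLP-1R: intracellular cAMP rise after 30 min at 37 °C read by HTRF, normalized between buffer only (0%) and maximal control ligand (100%), four-parameter variable-slope fit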;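 on Relative cAMP EC50, hGcgR: intracellular cAMP rise after 30 min at 37 °C, read by HTRF against a cAMP standard curve, scaled from buffer only (0%) to maximal control ligand response (100%)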
hGLP-1R [4] = biological target: T2, hGLP-1R; experiment: as above; details: read-out: Relative cAMP EC50, hGLP-1R
hGcgR = hGcgR (Homo sapiens, UniProt P47871); experiment: as above; details: read-out: Relative cAMP EC50, hGcgR;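 further: intracellular cAMP rise after 30 min at 37 °C, read by HTRF against a cAMP standard curve, scaled from buffer only (0%) to maximal control ligand response (100%)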
Chain of hGcgR (P47871 26-477): as above

[5] = HEK-293 clonal cell line, 1% HSA, geometric mean of relative EC50
[6] = in the presence of 0.1% casein (no HSA), geometric mean of relative EC50
[7] = in the presence of 0.1% casein (no HSA), geometric mean

| EC50 (hGIPR [1]; [5]) [nM] | EC50 (hGLP-1R [2]; [5]) [nM] | EC50 (human GcgR; [5]) [nM] | EC50 (hGIPR [3]; [6]) [nM] | EC50 (hGLP-1R [4]; [6]) [nM] | EC50 (hGcgR; [6]) [nM] | Structure (SMILES) | EC50 (hGIPR [1]) [nM] | EC50 (hGLP-1R [2]) [nM] | EC50 (human GcgR) [nM] | EC50 (hGIPR [3]) [nM] | EC50 (hGLP-1R [4]) [nM] | EC50 (hGcgR) [nM] | EC50 (hGIPR [3]; [7]) [nM] | EC50 (hGLP-1R [4]; [7]) [nM] | EC50 (hGcgR; [7]) [nM] |
| --- | --- | --- | --- | --- | --- | --- | --- | --- | --- | --- | --- | --- | --- | --- | --- |
| – | – | – | – | – | – | CC[C@H](C)[C@H](NC(=O)[C@H](CC(C)C)NC(=O)[C@](C)(Cc1ccc(O)cc1)NC(=O)[C@@H](CCC(=O)O)NC(=O)[C@@H](NC(=O)[C@H](Cc1ccccc1)NC(=O)[C@H](CCC(=O)O)NC(=O)C(C)(C)NC(=O)[C@H](C)NC(=O)[C@H](C)NC(=O)[C@H](CCCCNC(=O)COCCOCCNC(=O)CC[C@H](NC(=O)CCCCCCCCCCCCCCCCC(=O)O)C(=O)O)NC(=O)[C@H](CCCN)NC(=O)[C@H](CC(=O)O)NC(=O)[C@H](CC(C)C)NC(=O)[C@](C)(CC(C)C)NC(=O)[C@@H](NC(=O)[C@](C)(CO)NC(=O)[C@H](Cc1ccncc1)NC(=O)[C@H](CC(=O)O)NC(=O)[C@H](CO)NC(=O)[C@@H](NC(=O)[C@](C)(Cc1ccccc1F)NC(=O)[C@@H](NC(=O)CNC(=O)[C@H](CCC(N)=O)NC(=O)C(C)(C)NC(=O)[C@@H](N)Cc1ccc(O)cc1)[C@@H](C)O)[C@@H](C)O)[C@@H](C)CC)[C@@H](C)CC)C(=O)N[C@@H](CCC(=O)O)C(=O)NCC(=O)NCC(=O)N1CCC[C@H]1C(=O)N[C@@H](CO)C(=O)N[C@@H](CO)C(=O)NCC(=O)N[C@@H](C)C(=O)N1CCC[C@H]1C(=O)N1CCC[C@H]1C(=O)N1CCC[C@H]1C(=O)N[C@@H](CO)C(=O)NCC(=O)N[C@@H](CO)C(=O)N[C@@H](CCC(=O)O)C(=O)N[C@@H](CCC(=O)O)C(N)=O [Example 704] | 1.2 | 33.9 | 239 | 0.013 | 0.287 | 1.85 | – | – | – |
| – | – | – | – | – | – | CC[C@H](C)[C@H](NC(=O)[C@H](CC(C)C)NC(=O)[C@](C)(Cc1ccc(O)cc1)NC(=O)[C@@H](CCC(=O)O)NC(=O)[C@@H](NC(=O)[C@H](Cc1ccccc1)NC(=O)[C@H](CCC(=O)O)NC(=O)C(C)(C)NC(=O)[C@H](C)NC(=O)[C@H](C)NC(=O)[C@H](CCCCNC(=O)COCCOCCNC(=O)CC[C@H](NC(=O)CCCCCCCCCCCCCCCCC(=O)O)C(=O)O)NC(=O)[C@H](CCCN)NC(=O)[C@H](CC(=O)O)NC(=O)[C@H](CC(C)C)NC(=O)[C@](C)(CC(C)C)NC(=O)[C@@H](NC(=O)[C@](C)(CO)NC(=O)[C@H](Cc1ccncc1)NC(=O)[C@H](CC(=O)O)NC(=O)[C@H](CO)NC(=O)[C@@H](NC(=O)[C@](C)(Cc1ccccc1F)NC(=O)[C@@H](NC(=O)CNC(=O)[C@H](CCC(N)=O)NC(=O)C(C)(C)NC(=O)[C@@H](N)Cc1ccc(O)cc1)[C@@H](C)O)[C@@H](C)O)[C@@H](C)CC)[C@@H](C)CC)C(=O)N[C@@H](CCC(=O)O)C(=O)NCC(=O)NCC(=O)N1CCC[C@H]1C(=O)N[C@@H](CO)C(=O)N[C@@H](CO)C(=O)NCC(=O)N[C@@H](CCC(=O)O)C(=O)N1CCC[C@H]1C(=O)N1CCC[C@H]1C(=O)N1CCC[C@H]1C(=O)N[C@@H](CO)C(=O)NCC(=O)N[C@@H](CO)C(N)=O [Example 707] | 1.05 | 30.6 | 199 | 0.0107 | 0.248 | 1.06 | – | – | – |
| 1.02 | 28.3 | 239 | 0.0103 | 0.245 | 1.78 | CC[C@H](C)[C@H](NC(=O)[C@H](CC(C)C)NC(=O)[C@](C)(Cc1ccc(O)cc1)NC(=O)[C@@H](CCC(=O)O)NC(=O)[C@@H](NC(=O)[C@H](Cc1ccccc1)NC(=O)[C@H](CCC(=O)O)NC(=O)C(C)(C)NC(=O)[C@H](C)NC(=O)[C@H](C)NC(=O)[C@H](CCCCNC(=O)COCCOCCNC(=O)CC[C@H](NC(=O)CCCCCCCCCCCCCCCCC(=O)O)C(=O)O)NC(=O)[C@H](CCCN)NC(=O)[C@H](CC(=O)O)NC(=O)[C@H](CC(C)C)NC(=O)[C@](C)(CC(C)C)NC(=O)[C@@H](NC(=O)[C@](C)(CO)NC(=O)[C@H](Cc1ccncc1)NC(=O)[C@H](CC(=O)O)NC(=O)[C@H](CO)NC(=O)[C@@H](NC(=O)[C@](C)(Cc1ccccc1F)NC(=O)[C@@H](NC(=O)CNC(=O)[C@H](CCC(N)=O)NC(=O)C(C)(C)NC(=O)[C@@H](N)Cc1ccc(O)cc1)[C@@H](C)O)[C@@H](C)O)[C@@H](C)CC)[C@@H](C)CC)C(=O)N[C@@H](CCC(=O)O)C(=O)NCC(=O)NCC(=O)N1CCC[C@H]1C(=O)N[C@@H](CO)C(=O)N[C@@H](CO)C(=O)NCC(=O)N[C@@H](CCC(=O)O)C(=O)N1CCC[C@H]1C(=O)N1CCC[C@H]1C(=O)N1CCC[C@H]1C(=O)N[C@@H](CO)C(=O)NCC(=O)N[C@@H](CO)C(=O)N[C@H](CCC(=O)O)C(N)=O [Example 720] | – | – | – | – | – | – | – | – | – |
| – | – | – | – | – | – | CC[C@H](C)[C@H](NC(=O)[C@H](CC(C)C)NC(=O)[C@](C)(Cc1ccc(O)cc1)NC(=O)[C@@H](CCC(=O)O)NC(=O)[C@@H](NC(=O)[C@H](Cc1ccccc1)NC(=O)[C@H](CCC(=O)O)NC(=O)C(C)(C)NC(=O)[C@H](C)NC(=O)[C@H](C)NC(=O)[C@H](CCCCNC(=O)COCCOCCNC(=O)CC[C@H](NC(=O)CCCCCCCCCCCCCCCCC(=O)O)C(=O)O)NC(=O)[C@H](CCCN)NC(=O)[C@H](CC(=O)O)NC(=O)[C@H](CC(C)C)NC(=O)[C@](C)(CC(C)C)NC(=O)[C@@H](NC(=O)[C@](C)(CO)NC(=O)[C@H](Cc1ccncc1)NC(=O)[C@H](CC(=O)O)NC(=O)[C@H](CO)NC(=O)[C@@H](NC(=O)[C@](C)(Cc1ccccc1F)NC(=O)[C@@H](NC(=O)CNC(=O)[C@H](CCC(N)=O)NC(=O)C(C)(C)NC(=O)[C@@H](N)Cc1ccc(O)cc1)[C@@H](C)O)[C@@H](C)O)[C@@H](C)CC)[C@@H](C)CC)C(=O)N[C@@H](CCC(=O)O)C(=O)NCC(=O)NCC(=O)N1CCC[C@H]1C(=O)N[C@@H](CO)C(=O)N[C@@H](CO)C(=O)NCC(=O)N[C@@H](C)C(=O)N1CCC[C@H]1C(=O)N1CCC[C@H]1C(=O)N1CCC[C@H]1C(=O)N[C@@H](CO)C(=O)NCC(=O)N[C@H](C(=O)NCC(=O)N[C@H](CCC(=O)O)C(N)=O)[C@@H](C)O [Example 723] | 1.02 | 26.5 | 179 | 0.0118 | 0.255 | 1.82 | – | – | – |
| – | – | – | – | – | – | CC[C@H](C)[C@H](NC(=O)[C@H](Cc1ccccc1)NC(=O)[C@H](C)NC(=O)C(C)(C)NC(=O)[C@H](CCC(N)=O)NC(=O)[C@H](C)NC(=O)[C@H](CCCCNC(=O)COCCOCCNC(=O)CC[C@H](NC(=O)CCCCCCCCCCCCCCCCC(=O)O)C(=O)O)NC(=O)[C@H](CCCCN)NC(=O)[C@H](CC(=O)O)NC(=O)[C@H](CC(C)C)NC(=O)[C@](C)(CC(C)C)NC(=O)[C@H](CCC(N)=O)NC(=O)[C@H](CO)NC(=O)[C@H](Cc1ccncc1)NC(=O)[C@H](CC(=O)O)NC(=O)[C@H](CO)NC(=O)[C@@H](NC(=O)[C@H](Cc1ccccc1)NC(=O)[C@@H](NC(=O)CNC(=O)[C@H](CCC(N)=O)NC(=O)C(C)(C)NC(=O)[C@@H](N)Cc1ccc(O)cc1)[C@@H](C)O)[C@@H](C)O)C(=O)N[C@@H](CCC(=O)O)C(=O)N[C@@H](Cc1ccc(O)cc1)C(=O)N[C@@H](CC(C)C)C(=O)N[C@@H](CC(C)C)C(=O)N[C@@H](CCC(=O)O)C(=O)N[C@H](C)C(=O)NCC(=O)N1CCC[C@H]1C(=O)N[C@@H](CO)C(=O)N[C@@H](CO)C(=O)NCC(=O)N[C@@H](C)C(=O)N1CCC[C@H]1C(=O)N1CCC[C@H]1C(=O)N1CCC[C@H]1C(=O)N[C@@H](CO)C(=O)NCC(=O)N[C@H](C(N)=O)[C@@H](C)O [Example 821] | 26.1 | 362 | 989 | – | – | – | 0.152 | 2.79 | 6.74 |
